Legend:
[1] = test system: heart, kidney, bowel, pancreas or other transplantation; details: in combination with Cyclosporin A; cited from earlier work
[2] = test system: heterotopic heart allografts; details: rats given heterotopic heart allografts, cited from earlier work
immune response = details: rats; cited from earlier work
mouse T cells = test: Inhibition of T-cell proliferation (mouse T cells stimulated with ionomycin + PMA, tritiated-thymidine incorporation); assay type: cell-based; details: for reversal of inhibitory activity by exogenous IL-2: exogenous IL-2 (50 units/ml); for reversal of inhibitory activity by exogenous IL-2 / Percent Inhibition of Proliferation: mouse T cells
Source text: Biological activity as a immunosupressant can be measured in terms of inhibition of T-cell proliferation.

Row | Structure (SMILES) | effect on amount of Cyclosporin A required [1] | effect on nephrotoxicity of Cyclosporin A [1] | toxicity ([2]; compared with what would be anticipated with FK-506) | immunosuppression in heart allograft recipients [2] | inhibition of the response to allergic encephalomyelitis, adjuvant-induced arthritis and antibody production (immune response) | inhibition at 1.1 µM (mouse T cells; Mus musculus, T-cell, read-out: inhibited the proliferation) | reversal of inhibitory activity by exogenous IL-2 (mouse T cells; ionomycin + PMA) | Percent Inhibition of Proliferation (mouse T cells; 0.001 μM, ionomycin + PMA) | Percent Inhibition of Proliferation (mouse T cells; 0.01 μM, ionomycin + PMA) | Percent Inhibition of Proliferation (mouse T cells; 0.12 μM, ionomycin + PMA) | Percent Inhibition of Proliferation (mouse T cells; 1.2 μM, ionomycin + PMA) | Percent Inhibition of Proliferation (mouse T cells; 11.2 μM, ionomycin + PMA) | inhibition of proliferation of mouse T cells (qualitative) (mouse T cells; ionomycin + PMA)
1 | CO[C@H]1C[C@@H]2CC[C@@H](C)[C@@](O)(O2)C(=O)C(=O)N2CCCC[C@H]2C(=O)O[C@H]([C@H](C)C[C@@H]2CC[C@@H](O)[C@H](OC)C2)CC(=O)[C@H](C)/C=C(\C)[C@@H](O)[C@@H](OC)C(=O)[C@H](C)C[C@H](C)/C=C/C=C/C=C/1C [rapamycin] | reducing the amount of Cyclosporin A required to produce its immunosupressive effect | effectively reducing the nephrotoxicity inherent in treatment with Cyclosporin A | less toxicity was said to be experienced than would be anticipated with FK-506 | immunosuppressive in rats given heterotopic heart allografts | inhibiting the response to allergic encephalomyelitis,adjuvant-induced arthritis and antibody production in rats | 65% | not reversed by exogenous IL-2 |  |  |  |  |  | 
2 | COC1CC2CCC(C)C(O)(O2)C(=O)C(=O)N2CCCCC2C(=O)OC(C(C)CC2CCC(O)C(OC)C2)CC(=O)C(C)/C=C(\C)C(O)C(O)C(=O)C(C)CC(C)/C=C/C=C/C=C/1C (centres unmarked) [29-desmethyl-rapamycin, 29-desmethyl rapamycin] |  |  |  |  |  |  | not reversed by exogenous IL-2 | 7% | 32% | 49% | 59% | 88% | found to inhibit the proliferation of mouse T cells

Reference: patent publication US5091389A, “Lipophilic macrolide useful as an immunosuppressant” (Merck & Co., Inc., priority 1991, dated 1992)
